Source: US20250034207A1, “PEPTIDES AND PEPTIDE CONJUGATES FOR TREATING MENTAL DISORDERS” (Kyoto University, priority 2016, published 2025)
No end group written: not given here.

Test system: ddY mice
Assay: Tail suspension test in mice after oral administration
Format: in vivo
Conditions: for Activity Rating: rating excellent, good, moderate or low from percent reduction of control immobility, 0.3 mg/kg; for % of SEQ ID NO: 1 activity: reduction of control immobility relative to SEQ ID NO:1, 0.3 mg/kg oral, average where tested more than once; for Immobility time for peptides dosed at 0.3 mg/kg as percent of control immobility time, Example 16: Example 16 (retest)
Description: The tail suspension test is an experimental method used to screen potential antidepressant drugs (Can et al., 2012, J Vis Exp., 59: e3769). In the test as implemented in the Examples, a test substance is orally administered to mice (ddY mice, males, 24˜30 g) and 30 minutes later the mice are suspended by their tails for six minutes. The amount of time that a mouse is immobile (i.e. is not displaying escape behavior) during the six minutes is measured to provide an immobility time. The administration of anti-depressant drugs such as imipramine reduces immobility time. Therefore, if a reduction of immobility time is observed when testing a test substance, it can be concluded that the test substance has anti-depressant properties. Immobility is considered a despair state, and, therefore, a reduction of immobility time also indicates an increase in motivation (i.e., that the test substance has motivation-increasing properties).

Substance	Activity Rating	% of SEQ ID NO: 1 activity [%]	also measured
AQQSY (Designed peptide) [SEQ ID NO:5]	Moderate	26.16	Immobility time for peptides dosed at 0.3 mg/kg as percent of control immobility time, Example 3 (FIG. 3B) (0.3 mg/kg oral): 86.87% of control immobility time
AQQSYW (Designed peptide) [SEQ ID NO:41]	Low	5.32	Immobility time for peptides dosed at 0.3 mg/kg as percent of control immobility time, Example 14 (0.3 mg/kg oral): 97.33% of control immobility time
ESFFLSSTQAQQSY (Designed peptide) [SEQ ID NO:42]	Low	−39.13	Immobility time for peptides dosed at 0.3 mg/kg as percent of control immobility time, Example 15 (0.3 mg/kg oral): 119.64% of control immobility time
FFLSSTQAQQSYLQ (Designed peptide) [SEQ ID NO:44]	Good	33.91	Immobility time for peptides dosed at 0.3 mg/kg as percent of control immobility time, Example 15 (0.3 mg/kg oral): 82.98% of control immobility time; Immobility time compared to control (0.3 mg/kg oral, Example 15 (FIG. 11)): decreased
LSSTQ (Designed peptide) [SEQ ID NO:4]	Good	36.80	Immobility time for peptides dosed at 0.3 mg/kg as percent of control immobility time, Example 3 (FIG. 3B) (0.3 mg/kg oral): 81.53% of control immobility time
LSSTQAQQ (Designed peptide) [SEQ ID NO:27]	Good	46.52	Immobility time for peptides dosed at 0.3 mg/kg as percent of control immobility time, Example 13 (0.3 mg/kg oral): 76.65% of control immobility time
LSSTQAQQS (Designed peptide) [SEQ ID NO:2]	Moderate	25.28	Immobility time for peptides dosed at 0.3 mg/kg as percent of control immobility time, Example 3 (FIG. 3A) (0.3 mg/kg oral): 87.31% of control immobility time
LSSTQAQQSF (Designed peptide) [SEQ ID NO:7]	Excellent	115.46	Immobility time for peptides dosed at 0.3 mg/kg as percent of control immobility time, Example 6 (0.3 mg/kg oral): 42.05% of control immobility time
LSSTQAQQSW (Designed peptide) [SEQ ID NO:6]	Excellent	122.71	Immobility time for peptides dosed at 0.3 mg/kg as percent of control immobility time, Example 6 (0.3 mg/kg oral): 38.41% of control immobility time
LSSTQAQQSY (Designed peptide) [SEQ ID NO:1]	Excellent	100	Immobility time for peptides dosed at 0.3 mg/kg as percent of control immobility time, Example 1 (0.3 mg/kg oral, Example 1): 44.13% of control immobility time; Immobility time for peptides dosed at 0.3 mg/kg as percent of control immobility time, Example 3 (FIG. 3A) (0.3 mg/kg oral): 42.41% of control immobility time; Immobility time for peptides dosed at 0.3 mg/kg as percent of control immobility time, Example 3 (FIG. 3B) (0.3 mg/kg oral): 64.04% of control immobility time
LSSTQAQQSY-NH2 [SEQ ID NO:36, C-terminal amidated peptide conjugate]	Excellent	89.12	Immobility time for peptides dosed at 0.3 mg/kg as percent of control immobility time, Example 6 (0.3 mg/kg oral): 55.27% of control immobility time
LSSTQAQQSYLQGF (Designed peptide) [SEQ ID NO:43]	Low	−19.33	Immobility time for peptides dosed at 0.3 mg/kg as percent of control immobility time, Example 15 (0.3 mg/kg oral): 109.70% of control immobility time
LSSTQAQQSYW (Designed peptide) [SEQ ID NO:37]	Excellent	97.25	Immobility time for peptides dosed at 0.3 mg/kg as percent of control immobility time, Example 14 (0.3 mg/kg oral): 39.08% of control immobility time; Immobility time for peptides dosed at 0.3 mg/kg as percent of control immobility time, Example 16 (0.3 mg/kg oral): 58.54% of control immobility time
SSTQAQQS (Designed peptide) [SEQ ID NO:28]	Excellent	82.07	Immobility time for peptides dosed at 0.3 mg/kg as percent of control immobility time, Example 13 (0.3 mg/kg oral): 60.34% of control immobility time; Immobility time for peptides dosed at 0.3 mg/kg as percent of control immobility time, Example 16 (0.3 mg/kg oral): 57.29% of control immobility time
SSTQAQQSY (Designed peptide) [SEQ ID NO:3]	Excellent	64.81	Immobility time for peptides dosed at 0.3 mg/kg as percent of control immobility time, Example 3 (FIG. 3A) (0.3 mg/kg oral): 67.47% of control immobility time
STQAQQSY (Designed peptide) [SEQ ID NO:29]	Good	50.93	Immobility time for peptides dosed at 0.3 mg/kg as percent of control immobility time, Example 13 (0.3 mg/kg oral): 74.44% of control immobility time
WLSSTQ (Designed peptide) [SEQ ID NO:40]	Good	56.36	Immobility time for peptides dosed at 0.3 mg/kg as percent of control immobility time, Example 14 (0.3 mg/kg oral): 55.34% of control immobility time; Immobility time for peptides dosed at 0.3 mg/kg as percent of control immobility time, Example 16 (0.3 mg/kg oral): 88.09% of control immobility time
WLSSTQAQQSY (Designed peptide) [SEQ ID NO:38]	Good	55.25	Immobility time for peptides dosed at 0.3 mg/kg as percent of control immobility time, Example 14 (0.3 mg/kg oral): 72.27% of control immobility time
WLSSTQAQQSYW (Designed peptide) [SEQ ID NO:39]	Moderate	18.05	Immobility time for peptides dosed at 0.3 mg/kg as percent of control immobility time, Example 14 (0.3 mg/kg oral): 90.94% of control immobility time
